These results are taken from publication PMC6602202, “Enteroendocrine peptides regulate feeding behavior via controlling intestinal contraction of the silkworm Bombyx mori” (PLoS ONE, 2019).

The test system of one assay is BNGR-A5. Briefly: aequorin-based bioluminescent calcium assay, CHO cells expressing BNGR-A5. The assay is classed as cell-based, Bombyx mori. The note with it: aequorin luminescence 20 s, triplicates, three experiments. The method, then:
(§1) Activity of the BNGR-A5 and -16 receptors were analyzed using Chinese hamster ovary (CHO) cells transiently transfected with plasmids for expression of each BNGR, calcium-sensitive reporter aequorin and chimeric G protein that couple with receptor activation to an intracellular Ca^2+-increase independent of the endogenous receptor signaling cascade. The entire open reading frames of BNGR-A5 and -16 were cloned into pcDNA3.1(+) vector (Invitrogen) with a Kozak translation initiation sequence incorporated at 5´end. Plasmids for codon optimized aequorin and chimeric G proteins were used as described previously. […]
(§2) The transfected cells were detached using PBS supplemented with 0.2% EDTA and rinsed of the culture plates with the assay medium—phenol red free DMEM/F12 with L-glutamine and 15 mM HEPES (PAN Biotech, Wimborne, Dorset, UK), 0.1% BSA (Sigma-Aldrich Co. LLC.) and 1% penicillin/streptomycin (Life Technologies). […] Emitted luminescence signal corresponding to the ligand-induced intracellular Ca^2+ release was recorded for 20 s using the GloMax-Multi+ Detection System (Promega). […]

In the next assay the test system is BNGR-A16. Briefly: aequorin-based bioluminescent calcium assay, CHO cells expressing BNGR-A16. The note with it: aequorin luminescence 20 s, triplicates, three experiments. Type of assay: cell-based, Bombyx mori. As for the experimental part: as §1, §2
Another assay concerns ileum. The experiment in a line: Spontaneous contraction of the ileum in dissected open larvae. Details: species or system Bombyx mori. As for the experimental part: (§3) The opened head and abdominal portion of 2-day-old fifth-instar larvae (fed ad libitum and non-fed for 16 h) were washed twice with B. mori Ringer’s solution and incubated for 3 min at 27°C to stabilize the movement. After incubation, the contractile movements of the larval foregut and hindgut, particularly the spontaneous contraction of the pharynx and ileum (predominantly contracting area in hindgut) were observed and recorded using a digital microscope USB2.0 DigiScope II v2^TM (CHRONOS, Taipei, Taiwan). 100 μL of B. mori Ringer’s solution was added to the examined gut at 60 s after starting recording. Furthermore, 100 μL of B. mori Ringer’s solution (vehicle control) and 100 μL peptide-containing solution (10^−9–10^−5 M of peptides dissolved in B. mori Ringer’s solution) were exposed over gut at 120 s after a recording start. The contractile movements were analyzed using ImageJ software (https://imagej.net/Fiji) with the Optic flow plug-in (Gaussian window MSE). The direction of contractile movement was represented by the color and arrows described in the ‘Direction’ map. The position of the lines used for the kymograph analyses (x-y, z-w) were determined by Optic flow analyses. The waveform of the kymographs, corresponding to the visible contractions in the recorded movies, were quantified and converted to myograms. The number of contractions in 60 s was defined as the ‘contraction frequency’. Invisible contractions in the recorded movie and extremely small amplitudes in the myograms were considered as no significant contractions. The evaluation of visible contraction was defined by giving a threshold at the half length of the observed amplitude. The effect of synthetic peptides was represented by the ratio of the ‘contraction frequency’ at 60–120 s to 120–180 s (%) due to the extendedly various frequencies by individuality; the pharynx (30-40/60s) and hindgut (20-40/60s). This methodology by kymograph is substantially corresponding to the previously used assays for intestinal contraction. […]

Another assay deals with foregut and hindgut. The experiment in a line: Wash-out of contraction inhibition, isolated gut. Details: species or system Bombyx mori. The note with it: washing with the vehicle without the ligands. The method, then: as §3, with “The direction of contractile movement was represented by the color and arrows described in the ‘Direction’ map.” left out, “The number of contractions in 60 s was defined as the ‘contraction frequency’.” left out, “contractions.” for “contractions. The evaluation of visible contraction was defined by giving a threshold at the half length of the observed amplitude. The effect of synthetic peptides was represented by the ratio of the ‘contraction frequency’ at 60–120 s to 120–180 s (%) due to the extendedly various frequencies by individuality; the pharynx (30-40/60s) and hindgut (20-40/60s). This methodology by kymograph is substantially corresponding to the previously used assays for intestinal contraction.”

A further assay relates to intestinal contractions. The note with it: cited from earlier work. The source says: The myoinhibitory activities of AT and GSRYa-1 and -2 in the foregut (pharynx and esophagus) and hindgut (ileum) (Figs 5E, 5F and 6E) seem to be linked to the delay in feeding initiation in B. mori larvae (Figs 1D and 6B).
Assay [1] relates to foregut, midgut and hindgut. The note with it: other insect species; 48 (foregut), 27, 49 (midgut), 50, 51 (hindgut); cited from earlier work. The source says:
AT was originally isolated from extracts of heads of pharate adult tobacco hornworm, Manduca sexta as an allatoregulatory peptide. […] Consistently, it is possible in other insect species that ...

Assay [2] relates to foregut of Helicoverpa armigera. The note with it: cited from earlier work. The source says:
(§4) AT-producing EEs (Fig 2C and 2D) and GSRYamide-producing EEs (Fig 2E and 2F) also have the potential to deliver secretory granules containing peptidyl factors to the hemocoel side through a cellular membrane. Those EEs have similar cellular morphology to EEs releasing other arthropod neuropeptide CCAP (Crustacean cardioactive peptide) observed in the American cockroac ...

Assay [3] has as its system foregut of Lacanobia oleracea. The note with it: cited from earlier work.
Text: as §4

For allatotropin, the “affinity, BNGR-A5” value with BNGR-A5 was “much higher affinity to AT than BNGR-A16”. The “response, BNGR-A16” value in the assay with BNGR-A16 was “response of BNGR-A5 (Fig 3 an arrow) as well as BNGR-A16 to AT”. Also, the “contraction of ileum (movie)” value in the assay with ileum (10^−6 M exposed at 120 s, larvae fed ad libitum) is reported as “the contraction of ileum was inhibited”. Also, the “relative frequency of contraction, ileum, fed ad libitum” value in the assay with ileum (larvae fed ad libitum, 10^−9–10^−5 M, 27°C, 60–120 s vs 120–180 s, n = 5) was “decreased relative frequency of contraction”. In addition, the “relative frequency of contraction, ileum, non-fed” value in the assay with ileum (larvae non-fed for 16 h, 10^−9–10^−5 M, 27°C, n = 5) is on record as “decreased the frequency”. The “reversibility of inhibition on washing” value with foregut and hindgut was “did not resume even after washing”. The “effect on intestinal contractions, other Lepidopteran species” value in the assay with intestinal contractions is given as “stimulatory effect”. The “myoregulatory activity on foregut, midgut and hindgut” value in assay [1] is listed as “myoregulatory activities”. The “effect on spontaneous contraction of the foregut, H. armigera” value in assay [2] is reported as “regulate spontaneous contraction of the foregut”. The “effect on spontaneous contraction of the foregut, L. oleracea” value in assay [3] is on record as “regulate spontaneous contraction of the foregut”.
